In patent publication US10323026B2, “Heterocyclic compound” (Takeda Pharmaceutical Company Limited, priority 2016, dated 2019):

molecular target: T1, His-hMAGL (recombinant polyhistidine tagged human MAGL protein) (Homo sapiens, UniProt Q99685); test: Measurement of MAGL inhibitory activity (RapidFire-mass spectrometry of arachidonic acid produced from 2-arachidonylglycerol); type: biochemical; settings: test compound 10 μM; His-hMAGL; substrate 2-arachidonylglycerol; 60 min preincubation
T1 construct: polyhistidine (His) (N); made in house; host or cells: E. coli BL21(DE3)
T1 sequence (Q99685 1-303): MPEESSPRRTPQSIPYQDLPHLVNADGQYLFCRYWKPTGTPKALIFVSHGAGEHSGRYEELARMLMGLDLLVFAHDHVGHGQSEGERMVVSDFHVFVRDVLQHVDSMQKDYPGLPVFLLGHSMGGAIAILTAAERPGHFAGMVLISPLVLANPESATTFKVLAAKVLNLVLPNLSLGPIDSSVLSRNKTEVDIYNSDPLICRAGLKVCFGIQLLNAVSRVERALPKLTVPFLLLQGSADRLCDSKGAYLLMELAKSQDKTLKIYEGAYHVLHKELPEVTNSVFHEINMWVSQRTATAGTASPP
How it was run: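 After quenching with acetonitrile containing 3 μM arachidonic acid-d8, the arachidonic acid formed was measured by online SPE RapidFire-MS/MS in negative SRM mode and corrected against the d8 standard. Inhibition (%) was calculated relative to compound-free and enzyme-free groups.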

| % inhibition (10 μM) | Structure (SMILES) |
| --- | --- |
| 100% | CC(Oc1ccc(C(F)(F)F)cc1F)C1CN(C(=O)[C@H]2C[C@]3(COC(=O)N3)C2)C1 (stereo partly drawn) [Example 14, (2s,4s)-2-((3-(1-(2-fluoro-4-(trifluoromethyl)phenoxy)ethyl)azetidin-1-yl)carbonyl)-7-oxa-5-azaspiro[3.4]octan-6-one] |
| 100% | CC(Oc1ccc(F)cc1C(F)(F)F)C1CCN(C(=O)[C@H]2C[C@]3(COC(=O)N3)C2)CC1 (stereo partly drawn) [Example 67, (2s,4s)-2-((4-(1-(4-fluoro-2-(trifluoromethyl)phenoxy)ethyl)piperidin-1-yl)carbonyl)-7-oxa-5-azaspiro[3.4]octan-6-one] |
| 100% | CC(Oc1c(F)cc(F)cc1F)C1CCN(C(=O)[C@H]2C[C@]3(COC(=O)N3)C2)CC1 (stereo partly drawn) [Example 87, (2s,4s)-2-((4-(1-(2,4,6-trifluorophenoxy)ethyl)piperidin-1-yl)carbonyl)-7-oxa-5-azaspiro[3.4]octan-6-one] |
| 100% | CC(Oc1c(F)cc(F)cc1F)C1CCN(C(=O)[C@H]2C[C@]3(COC(=O)N3)C2)CC1 (stereo partly drawn) [Example 88, (2s,4s)-2-((4-(1-(2,4,6-trifluorophenoxy)ethyl)piperidin-1-yl)carbonyl)-7-oxa-5-azaspiro[3.4]octan-6-one] |

same assay, conditions: test compound 10 μM; His-hMAGL; substrate 2-arachidonylglycerol; 60 min preincubation; 10 µM

| % inhibition (10 μM) | Structure (SMILES) |
| --- | --- |
| 101% | CC(Oc1ccc(F)cc1F)C1CCN(C(=O)[C@H]2C[C@]3(COC(=O)N3)C2)CC1 (stereo partly drawn) [Example 22, (2s,4s)-2-((4-(1-(2,4-difluorophenoxy)ethyl)piperidin-1-yl)carbonyl)-7-oxa-5-azaspiro[3.4]octan-6-one] |
| 101% | CC(Oc1cc(F)c(F)cc1F)C1CCN(C(=O)[C@H]2C[C@]3(COC(=O)N3)C2)CC1 (stereo partly drawn) [Example 54, (2s,4s)-2-((4-(1-(2,4,5-trifluorophenoxy)ethyl)piperidin-1-yl)carbonyl)-7-oxa-5-azaspiro[3.4]octan-6-one] |

same assay, conditions: test compound 10 μM; His-hMAGL; substrate 2-arachidonylglycerol; 60 min preincubation; read-out: % inhibition (10 μM)

| Structure (SMILES) | inhibition at 10 µM |
| --- | --- |
| CC1(C2CCN(C(=O)[C@H]3C[C@]4(COC(=O)N4)C3)CC2)Cc2cc(F)cc(F)c2O1 (stereo partly drawn) [Example 16, (2s,4s)-2-((4-(5,7-difluoro-2-methyl-2,3-dihydro-1-benzofuran-2-yl)piperidin-1-yl)carbonyl)-7-oxa-5-azaspiro[3.4]octan-6-one] | 100% |
| O=C1N[C@]2(CO1)C[C@H](C(=O)N1CCC(C(c3ccccc3)c3ccccc3)CC1)C2 [Example 50, (2s,4s)-2-((4-(diphenylmethyl)piperidin-1-yl)carbonyl)-7-oxa-5-azaspiro[3.4]octan-6-one] | 101% |
| O=C1N[C@]2(CO1)C[C@H](C(=O)N1CC(COc3ccc(C(F)(F)F)cc3Cl)C1)C2 [Example 76, (2s,4s)-2-((3-((2-chloro-4-(trifluoromethyl)phenoxy)methyl)azetidin-1-yl)carbonyl)-7-oxa-5-azaspiro[3.4]octan-6-one] | 100% |
| O=C1N[C@]2(CO1)C[C@H](C(=O)N1CCC(C(F)(F)c3ccc(Cl)cc3Cl)CC1)C2 [Example 8, (2s,4s)-2-((4-((2,4-dichlorophenyl)(difluoro)methyl)piperidin-1-yl)carbonyl)-7-oxa-5-azaspiro[3.4]octan-6-one] | 100% |
| O=C1N[C@]2(CO1)C[C@H](C(=O)N1CC(/C=C(\F)c3ccc(C(F)(F)F)c(F)c3F)C1)C2 [Example 104, (2s,4s)-2-((3-((Z)-2-(2,3-difluoro-4-(trifluoromethyl)phenyl)-2-fluorovinyl)azetidin-1-yl)carbonyl)-7-oxa-5-azaspiro[3.4]octan-6-one] | 100% |
| O=C1N[C@]2(CO1)C[C@H](C(=O)N1CC(OCc3cc(Cl)c(F)c(Cl)c3)C1)C2 [Example 106, (2s,4s)-2-((3-((3,5-dichloro-4-fluorobenzyl)oxy)azetidin-1-yl)carbonyl)-7-oxa-5-azaspiro[3.4]octan-6-one] | 100% |
| CC1(C2CCN(C(=O)[C@H]3C[C@]4(COC(=O)N4)C3)CC2)Cc2cc(F)ccc2O1 (stereo partly drawn) [Example 4, (2s,4s)-2-((4-(5-fluoro-2-methyl-2,3-dihydro-1-benzofuran-2-yl)piperidin-1-yl)carbonyl)-7-oxa-5-azaspiro[3.4]octan-6-one] | 100% |
| CC1(C(F)(F)c2ccc(F)cc2Cl)CCN(C(=O)[C@H]2C[C@]3(COC(=O)N3)C2)CC1 [Example 52, (2s,4s)-2-((4-((2-chloro-4-fluorophenyl)(difluoro)methyl)-4-methylpiperidin-1-yl)carbonyl)-7-oxa-5-azaspiro[3.4]octan-6-one] | 100% |
| O=C1N[C@]2(CO1)C[C@H](C(=O)N1CC(COc3cc(C4CC4)c(C(F)(F)F)cc3F)C1)C2 [Example 65, (2s,4s)-2-((3-((5-cyclopropyl-2-fluoro-4-(trifluoromethyl)phenoxy)methyl)azetidin-1-yl)carbonyl)-7-oxa-5-azaspiro[3.4]octan-6-one] | 101% |
| O=C1N[C@]2(CO1)C[C@H](C(=O)N1CC(OCc3ccc(C(F)(F)F)c(Cl)c3F)C1)C2 [Example 102, (2s,4s)-2-((3-((3-chloro-2-fluoro-4-(trifluoromethyl)benzyl)oxy)azetidin-1-yl)carbonyl)-7-oxa-5-azaspiro[3.4]octan-6-one] | 100% |
| O=C1N[C@]2(CO1)C[C@H](C(=O)N1CC(COc3cc(Br)c(C(F)(F)F)cc3F)C1)C2 [Example 41, (2s,4s)-2-((3-((5-bromo-2-fluoro-4-(trifluoromethyl)phenoxy)methyl)azetidin-1-yl)carbonyl)-7-oxa-5-azaspiro[3.4]octan-6-one] | 101% |

Next, values leading:

| inhibition at 10 µM | Structure (SMILES) |
| --- | --- |
| 101% | CC(Oc1cc(F)c(F)cc1F)C1CCN(C(=O)[C@H]2C[C@]3(COC(=O)N3)C2)CC1 (stereo partly drawn) [Example 40, (2s,4s)-2-((4-(1-(2,4,5-trifluorophenoxy)ethyl)piperidin-1-yl)carbonyl)-7-oxa-5-azaspiro[3.4]octan-6-one] |
| 100% | CC(Oc1c(F)cc(F)cc1F)C1CCN(C(=O)[C@H]2C[C@]3(COC(=O)N3)C2)CC1 (stereo partly drawn) [Example 85, (2s,4s)-2-((4-(1-(2,4,6-trifluorophenoxy)ethyl)piperidin-1-yl)carbonyl)-7-oxa-5-azaspiro[3.4]octan-6-one] |
| 101% | CC(Oc1ccc(F)c(F)c1F)C1CCN(C(=O)[C@H]2C[C@]3(CCC(=O)N3)C2)CC1 (stereo partly drawn) [Example 74, (2r,4s)-2-((4-(1-(2,3.4-trifluorophenoxy)ethyl)piperidin-1-yl)carbonyl)-5-azaspiro[3.4]octan-6-one] |
| 100% | CC(Oc1ccc(C2CC2)cc1F)C1CCN(C(=O)[C@H]2C[C@]3(COC(=O)N3)C2)CC1 (stereo partly drawn) [Example 47, (2s,4s)-2-((4-(1-(4-cychopropyl-2-fluorophenoxy)ethyl)piperidin-1-yl)carbonyl)-7-oxa-5-azaspiro[3.4]octan-6-one] |
